# Measurements: patent US9309200B2, “Benzazepine derivatives, pharmaceutical compositions containing them, and their use in therapy” (AbbVie Deutschland GmbH & Co. KG, priority 2011, dated 2016)
# Where a name gives a salt, the structure may show the parent alone.
# Biological target: T1, human GlyT1c transporter (Homo sapiens, UniProt P48067)
# T1 construct: expressed in transfected cells; host or cells: recombinant CHO cells (membranes); the uptake assay names the line hGlyT1c_5_CHO
# T1 sequence (P48067 1-706): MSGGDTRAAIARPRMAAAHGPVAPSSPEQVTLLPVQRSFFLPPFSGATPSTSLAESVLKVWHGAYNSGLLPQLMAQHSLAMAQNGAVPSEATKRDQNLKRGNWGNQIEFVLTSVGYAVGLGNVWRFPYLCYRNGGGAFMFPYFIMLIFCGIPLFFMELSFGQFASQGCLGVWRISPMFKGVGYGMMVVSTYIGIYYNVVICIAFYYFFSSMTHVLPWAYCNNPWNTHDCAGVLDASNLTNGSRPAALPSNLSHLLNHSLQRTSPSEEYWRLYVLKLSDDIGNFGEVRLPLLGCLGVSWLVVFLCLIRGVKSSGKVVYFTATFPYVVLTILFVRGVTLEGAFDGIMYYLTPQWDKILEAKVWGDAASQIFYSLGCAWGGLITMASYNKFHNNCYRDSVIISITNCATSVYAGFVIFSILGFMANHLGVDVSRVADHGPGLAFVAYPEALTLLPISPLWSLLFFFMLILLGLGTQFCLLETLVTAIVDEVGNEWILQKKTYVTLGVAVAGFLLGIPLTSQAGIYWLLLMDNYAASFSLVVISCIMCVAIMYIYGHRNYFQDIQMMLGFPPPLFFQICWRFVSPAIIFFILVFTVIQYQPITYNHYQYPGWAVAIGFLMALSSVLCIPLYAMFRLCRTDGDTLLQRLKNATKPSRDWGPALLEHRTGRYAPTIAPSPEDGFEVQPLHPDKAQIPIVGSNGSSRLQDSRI
# Assay: Radioligand binding assay using recombinant CHO cell membranes expressing human GlyT1
# Conditions: read-out: radioligand binding Kiapp
# Experimental: 2. Radioligand Binding Assays Using Recombinant CHO Cell Membranes Expressing Human GlyT1:
# Radioligand binding to human GlyT1c transporter-expressing membranes was determined as described in Mezler et al., Molecular Pharmacology 74:1705-1715, 2008.
row,Ki [nM],SMILES
1,≤ 1000,"Cn1cnc(S(=O)(=O)NCc2ccc3c(c2)C(Cc2ccc(Cl)cc2)NCCC3)c1 (stereo not drawn) [Example 18, 1-Methyl-1H-imidazole-4-sulfonic acid [1-(4-chloro-benzyl)-2,3,4,5-tetrahydro-1H-benzo-[c]azepin-8-ylmethyl]-amide]"
2,≤ 10,"CN1CCCc2ccc(OCCNS(=O)(=O)c3cnn(C)c3)cc2C1Cc1ccccc1 (stereo not drawn) [Example 7, 1-Methyl-1H-pyrazole-4-sulfonic acid [2-(1-benzyl-2-methyl-2,3,4,5-tetrahydro-1H-benzo[c]azepin-8-yloxy)-ethyl]amide]"
3,≤ 1000,"CCCS(=O)(=O)NCc1ccc2c(c1)C(Cc1cccc(F)c1)NCCC2 (stereo not drawn) [Example 27, Propane-1-sulfonic acid [1-(3-fluoro-benzyl)-2,3,4,5-tetrahydro-1H-benzo[c]azepin-8-ylmethyl]-amide]"
4,≤ 1000,"CCCS(=O)(=O)NCc1ccc2c(c1)C(Cc1ccc(Cl)cc1)NCCC2 (stereo not drawn) [Example 14, Propane-1-sulfonic acid [1-(4-chloro-benzyl)-2,3,4,5-tetra-hydro-1H-benzo[c]azepin-8-ylmethyl]-amide]"
5,≤ 100,"O=S(=O)(CC1CC1)NCCOc1ccc2c(c1)C(Cc1ccccc1)NCCC2 (stereo not drawn) [Example 4, N-(2-(1-benzyl-2,3,4,5-tetrahydro-1H-benzo[c]azepin-8-yloxy)ethyl)-1-cyclopropylmethanesulfonamide]"
6,≤ 100,"O=S(=O)(NCc1ccc2c(c1)C(Cc1ccccc1)NCCC2)C1CCC1 (stereo not drawn) [Example 31, Cyclobutanesulfonic acid (1-benzyl-2,3,4,5-tetrahydro-1H-benzo[c]azepin-8-ylmethyl)-amide]"
7,≤ 10000,"CCS(=O)(=O)NCc1ccc2c(c1)C(Cc1ccccc1)NCCC2 (stereo not drawn) [Example 33, Ethanesulfonic acid (1-benzyl-2,3,4,5-tetrahydro-1H-benzo[c]-azepin-8-ylmethyl)-amide]"
8,≤ 10000,"CCS(=O)(=O)NCCOc1ccc2c(c1)C(Cc1ccc(Cl)cc1)NCCC2 (stereo not drawn) [Example 9, Ethanesulfonic acid {2-[1-(4-chlorobenzyl)-2,3,4,5-tetrahydro-1H-benzo[c]azepin-8-yloxy]-ethyl}-amide]"
9,≤ 10,"Cn1cc(S(=O)(=O)NCc2ccc3c(c2)C(Cc2ccccc2)NCCC3)cn1 (stereo not drawn) [Example 34, 1-Methyl-1H-pyrazole-4-sulfonic acid (1-benzyl-2,3,4,5-tetra-hydro-1H-benzo[c]azepin-8-ylmethyl)-amide]"
10,≤ 100,"CN1CCCc2ccc(CNS(=O)(=O)c3cn(C)cn3)cc2C1Cc1ccccc1 (stereo not drawn) [Example 38, 1-Methyl-1H-imidazole-4-sulfonic acid (1-benzyl-2-methyl-2,3,4,5-tetrahydro-1H-benzo[c]azepin-8-ylmethyl)-amide]"
11,≤ 100,"CN(Cc1ccc2c(c1)C(Cc1ccccc1)NCCC2)S(=O)(=O)c1cn(C)cn1 (stereo not drawn) [Example 36, 1-Methyl-1H-imidazole-4-sulfonic acid (1-benzyl-2,3,4,5-tetrahydro-1H-benzo[c]azepin-8-ylmethyl)-methyl-amide]"
12,≤ 100,"Cn1cnc(S(=O)(=O)NCCOc2ccc3c(c2)C(Cc2ccccc2)NCCC3)c1 (stereo not drawn) [Example 2, N-(2-(1-Benzyl-2,3,4,5-tetrahydro-1H-benzo[c]azepin-8-yloxy)ethyl)-1-methyl-1H-imidazole-4-sulfonamide]"
13,≤ 1000,"CCS(=O)(=O)NCCOc1ccc2c(c1)C(Cc1ccccc1)NCCC2 (stereo not drawn) [Example 11, Ethanesulfonic acid [2-(1-benzyl-2,3,4,5-tetrahydro-1H-benzo[c]azepin-8-yloxy)-ethyl]-amide]"
14,≤ 100,"O=S(=O)(CC1CC1)NCc1ccc2c(c1)C(Cc1cccc(F)c1)NCCC2 (stereo not drawn) [Example 28, C-Cyclopropyl-N-[1-(3-fluoro-benzyl)-2,3,4,5-tetrahydro-1H-benzo[c]azepin-8-ylmethyl)-methanesulfonamide]"
15,> 10000,"COc1ccc2c(c1)C(Cc1ccccc1)NCCC2 (stereo not drawn) [Example 1, 1-Benzyl-8-methoxy-2,3,4,5-tetrahydro-1H-benzo[c]azepine]"
16,≤ 1000,"CCCS(=O)(=O)NCc1ccc2c(c1)C(Cc1ccccc1)NCCC2 (stereo not drawn) [Example 32, Propane-1-sulfonic acid (1-benzyl-2,3,4,5-tetrahydro-1H-benzo[c]-azepin-8-ylmethyl)-amide]"
17,≤ 10000,"CCS(=O)(=O)NCc1ccc2c(c1)C(Cc1ccc(Cl)cc1)NCCC2 (stereo not drawn) [Example 16, Ethanesulfonic acid [1-(4-chloro-benzyl)-2,3,4,5-tetra-hydro-1H-benzo[c]azepin-8-ylmethyl]-amide]"

row,Ki [nM],SMILES
1,≤ 100,"CCN1CCCc2ccc(CNS(=O)(=O)c3cn(C)cn3)cc2C1Cc1ccccc1 (stereo not drawn) [Example 39, 1-Methyl-1H-imidazole-4-sulfonic acid (1-benzyl-2-ethyl-2,3,4,5-tetrahydro-1H-benzo[c]azepin-8-ylmethyl)-amide]"
2,≤ 10000,"O=S(=O)(CC1CC1)NCc1ccc2c(c1)C(Cc1ccc(Cl)cc1)NCCC2 (stereo not drawn) [Example 15, N-[1-(4-Chloro-benzyl)-2,3,4,5-tetrahydro-1H-benzo[c]azepin-8-ylmethyl]-C-cyclopropyl-methanesulfonamide]"
3,≤ 10,"Cn1cnc(S(=O)(=O)NCc2cc3c(cc2F)CCCNC3Cc2ccccc2)c1 (stereo not drawn) [Example 41, 1-Methyl-1H-imidazole-4-sulfonic acid (1-benzyl-7-fluoro-2,3,4,5-tetrahydro-1H-benzo[c]azepin-8-ylmethyl)-amide]"
4,≤ 100,"CCN(Cc1ccc2c(c1)C(Cc1ccccc1)NCCC2)S(=O)(=O)c1cn(C)cn1 (stereo not drawn) [Example 40, 1-Methyl-1H-imidazole-4-sulfonic acid (1-benzyl-2,3,4,5-tetrahydro-1H-benzo[c]azepin-8-ylmethyl)-ethyl-amide]"
5,≤ 100,"CCCS(=O)(=O)NCCOc1ccc2c(c1)C(Cc1ccccc1)NCCC2 (stereo not drawn) [Example 10, Propane-1-sulfonic acid [2-(1-benzyl-2,3,4,5-tetrahydro-1H-benzo[c]azepin-8-yloxy)-ethyl]-amide]"
6,≤ 10,"Cn1cnc(S(=O)(=O)NCc2ccc3c(c2)C(Cc2cccc(F)c2)NCCC3)c1 (stereo not drawn) [Example 22, 1-Methyl-1H-imidazole-4-sulfonic acid [1-(3-fluoro-benzyl)-2,3,4,5-tetrahydro-1H-benzo[c]azepin-8-ylmethyl]-amide]"
7,≤ 10,"Cn1cc(S(=O)(=O)NCCOc2ccc3c(c2)C(Cc2ccccc2)NCCC3)cn1 (stereo not drawn) [Example 3, N-(2-(1-Benzyl-2,3,4,5-tetrahydro-1H-benzo[c]azepin-8-yloxy)ethyl)-1-methyl-1H-pyrazole-4-sulfonamide]"
8,≤ 10,"CCCN1CCCc2ccc(CNS(=O)(=O)c3cn(C)cn3)cc2C1Cc1ccccc1 (stereo not drawn) [Example 37, 1-Methyl-1H-imidazole-4-sulfonic acid (1-benzyl-2-propyl-2,3,4,5-tetrahydro-1H-benzo[c]azepin-8-ylmethyl)-amide]"
9,≤ 100,"O=S(=O)(CC1CC1)NCCOc1ccc2c(c1)C(Cc1ccccc1)NCCC2 (stereo not drawn) [Example 13, N-{2-[1-Benzyl-2,3,4,5-tetrahydro-1H-benzo[c]azepin-8-yloxy]-ethyl}-C-cyclopropyl-methanesulfonamide]"
10,≤ 10,"Cn1cnc(S(=O)(=O)NCc2ccc3c(c2)C(Cc2ccccc2)NCCC3)c1 (stereo not drawn) [Example 35, 1-Methyl-1H-imidazole-4-sulfonic acid (1-benzyl-2,3,4,5-tetra-hydro-1H-benzo[c]azepin-8-ylmethyl)-amide]"
11,≤ 10,"CN1CCCc2ccc(OCCNS(=O)(=O)c3cn(C)cn3)cc2C1Cc1ccccc1 (stereo not drawn) [Example 6, 1-Methyl-1H-imidazole-4-sulfonic acid [2-(1-benzyl-2-methyl-2,3,4,5-tetrahydro-1H-benzo[c]azepin-8-yloxy)-ethyl]-amide]"
12,≤ 100,"O=S(=O)(CC1CC1)NCc1ccc2c(c1)C(Cc1ccccc1)NCCC2 (stereo not drawn) [Example 30, N-(1-Benzyl-2,3,4,5-tetrahydro-1H-benzo[c]azepin-8-ylmethyl)-C-cyclopropyl-methane-sulfonamide]"
13,≤ 100,"CCCS(=O)(=O)NCCOc1ccc2c(c1)C(Cc1cccc(F)c1)NCCC2 (stereo not drawn) [Example 23, Propane-1-sulfonic acid {2-[1-(3-fluoro-benzyl)-2,3,4,5-tetrahydro-1H-benzo[c]azepin-8-yloxy]-ethyl}-amide]"
14,≤ 100,"O=S(=O)(CC1CC1)NCCOc1ccc2c(c1)C(Cc1cccc(F)c1)NCCC2 (stereo not drawn) [Example 24, C-Cyclopropyl-N-{2-[1-(3-fluoro-benzyl)-2,3,4,5-tetrahydro-1H-benzo[c]azepin-8-yloxy]-ethyl}-methanesulfonamide]"
15,≤ 1000,"CCS(=O)(=O)NCc1ccc2c(c1)C(Cc1cccc(F)c1)NCCC2 (stereo not drawn) [Example 29, Ethanesulfonic acid [1-(3-fluoro-benzyl)-2,3,4,5-tetrahydro-1H-benzo[c]azepin-8-ylmethyl]-amide]"
16,≤ 10000,"COc1ccc2c(c1)C(C1(c3ccc(Cl)cc3)CCC1)NCCO2 (stereo not drawn) [Example 5, 5-(1-(4-Chlorophenyl)cyclobutyl)-7-methoxy-2,3,4,5-tetrahydrobenzo[f][1,4]oxazepine hydrochloride]"
